Data taken from US9227971B2, “Pyrazolo[1,5-a]pyrimidine compounds as mTOR inhibitors” (Merck Sharp & Dohme Corp., priority 2010, dated 2016).
Like-named read-outs stand apart in the source and are kept apart here.

Experiments:
[1] = tested on: phosphorylated AKT Ser473 (pAKT S473), mTORC2 activity, PC3 cells; assay: mTOR target engagement assay, immunofluorescent cell-based, pAKT S473 readout (mTORC2 activity); settings: PC3 cells
How it was run: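 After blocking, cells were stained overnight at 4 °C with anti-pAKT S473 antibody, then a fluorescent secondary; inhibition was read as reduced fluorescence intensity.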

[2] = tested on: phosphorylated 4E-BP1 Thr37/46 (p4E-BP1 Thr37/46), mTORC1 activity, PC3 cells; assay: mTOR target engagement assay, immunofluorescent cell-based, p4E-BP1 Thr37/46 readout (mTORC1 activity); settings: PC3 cells, read-out: p4E-BP1 Thr37/46 IC50
How it was run: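 Cell-based immunofluorescence in PC3 cells: serially diluted compounds (0.25% DMSO, 5% FBS) applied for ninety minutes at 37° C before fixation and overnight 4° C staining of p4E-BP1 Thr37/46. Untreated DMSO wells set maximal phosphorylation; IC50 obtained by logistic fitting.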

Compound	IC50 ([1]; Homo sapiens, PC-3, Table 3-1) [µM]	IC50 ([2]; Homo sapiens, PC-3, Table 3-1) [µM]	IC50 ([1]; Table 3-1) [µM]	IC50 ([2]; Table 3-1) [µM]
CS(=O)(=O)c1c([C@H]2CC3CC[C@H](C2)N3C(=O)c2nnc[nH]2)nc2c(-c3ccc(C4CCCC4)nc3)cnn2c1N [Compound 3.166, ((1R,3s,5S)-3-(7-amino-3-(6-cyclopentylpyridin-3-yl)-6-(methylsulfonyl)pyrazolo[1,5-a]pyrimidin-5-yl)-8-azabicyclo[3.2.1]octan-8-yl)(4H-1,2,4-triazol-3-yl)methanone]	0.1 to 1	0.1 to 1		
CS(=O)(=O)c1c([C@H]2CC3CC[C@H](C2)N3C(=O)c2ncn[nH]2)nc2c(-c3ccc(C4CCC4)nc3)cnn2c1N [Compound 3.167, ((1R,3s,5S)-3-(7-amino-3-(6-cyclobutylpyridin-3-yl)-6-(methylsulfonyl)pyrazolo[1,5-a]pyrimidin-5-yl)-8-azabicyclo[3.2.1]octan-8-yl)(1H-1,2,4-triazol-5-yl)methanone]	0.1 to 1	0.1 to 1		
COc1ccc(-c2ccc(-c3cnn4c(N)c(S(C)(=O)=O)c([C@H]5CC6CC[C@H](C5)N6C(=O)c5cn[nH]n5)nc34)cn2)cc1F [Compound 3.169, ((1R,3a,5S)-3-(7-amino-3-(6-(3-fluoro-4-methoxyphenyl)pyridin-3-yl)-6-(methylsulfonyl)pyrazolo[1,5-a]pyrimidin-5-yl)-8-azabicyclo[3.2.1]octan-8-yl)(2H-1,2,3-triazol-4-yl)methanone]	0.001 to 0.1	0.1 to 1		
CS(=O)(=O)c1c([C@H]2CC3CC[C@H](C2)N3C(=O)c2cn[nH]n2)nc2c(-c3ccc(-c4ccccc4F)nc3)cnn2c1N [Compound 3.170, ((1R,3s,5S)-3-(7-amino-3-(6-(2-fluorophenyl)pyridin-3-yl)-6-(methylsulfonyl)pyrazolo[1,5-a]pyrimidin-5-yl)-8-azabicyclo[3.2.1]octan-8-yl)(2H-1,2,3-triazol-4-yl)methanone]	0.1 to 1	0.1 to 1		
CONC(=O)N1C2CC[C@@H]1C[C@@H](c1nc3c(-c4ccc(-c5ccccc5)nc4)cnn3c(N)c1S(C)(=O)=O)C2 [Compound 3.171, (1R,3s,5S)-3-(7-amino-6-(methylsulfonyl)-3-(6-phenylpyridin-3-yl)pyrazolo[1,5-a]pyrimidin-5-yl)-N-methoxy-8-azabicyclo[3.2.1]octane-8-carboxamide]	0.1 to 1	0.1 to 1		
CS(=O)(=O)c1c([C@H]2CC3CC[C@H](C2)N3C(=O)NO)nc2c(-c3ccc(-c4ccccc4)nc3)cnn2c1N [Compound 3.172, (1R,3s,5S)-3-(7-amino-6-(methylsulfonyl)-3-(6-phenylpyridin-3-yl)pyrazolo[1,5-a]pyrimidin-5-yl)-N-hydroxy-8-azabicyclo[3.2.1]octane-8-carboxamide]	0.1 to 1	0.001 to 0.1		
CS(=O)(=O)c1c([C@H]2CC3CC[C@H](C2)N3C(=O)c2cnn[nH]2)nc2c(-c3ccc(-c4c(F)cccc4F)nc3)cnn2c1N [Compound 3.173, ((1R,3s,5S)-3-(7-amino-3-(6-(2,6-difluorophenyl)pyridin-3-yl)-6-(methylsulfonyl)pyrazolo[1,5-a]pyrimidin-5-yl)-8-azabicyclo[3.2.1]octan-8-yl)(1H-1,2,3-triazol-5-yl)methanone]	0.1 to 1	0.1 to 1		
Cn1ccc(-c2ccc(-c3cnn4c(N)c(S(C)(=O)=O)c([C@@H]5C[C@H]6CC[C@@H](C5)N6C(=O)c5cn[nH]n5)nc34)cn2)n1 [Compound 3.174, ((1R,3s,5S)-3-(7-amino-3-(6-(1-methyl-1H-pyrazol-3-yl)pyridin-3-yl)-6-(methylsulfonyl)pyrazolo[1,5-a]pyrimidin-5-yl)-8-azabicyclo[3.2.1]octan-8-yl)(2H-1,2,3-triazol-4-yl)methanone]	0.1 to 1	0.1 to 1		
CS(=O)(=O)c1c([C@H]2CC3CC[C@H](C2)N3C(=O)c2cn[nH]n2)nc2c(-c3cnc(-c4ccccc4)cn3)cnn2c1N [Compound 3.175]	1 to 10	1 to 10		
CS(=O)(=O)c1c([C@H]2CC3CC[C@H](C2)N3C(=O)c2cn[nH]n2)nc2c(-c3cnn(-c4ccccc4)c3)cnn2c1N [Compound 3.176, ((1R,3s,5S)-3-(7-amino-6-(methylsulfonyl)-3-(1-phenyl-1H-pyrazol-4-yl)pyrazolo[1,5-a]pyrimidin-5-yl)-8-azabicyclo[3.2.1]octan-8-yl)(2H-1,2,3-triazol-4-yl)methanone]	0.1 to 1	0.1 to 1		
CS(=O)(=O)c1c([C@H]2CC3CC[C@H](C2)N3C(=O)c2cn[nH]n2)nc2c(-c3cnc4ccc(F)cc4c3)cnn2c1N [Compound 3.177, ((1R,3s,5S)-3-(7-amino-3-(6-fluoroquinolin-3-yl)-6-(methylsulfonyl)pyrazolo[1,5-a]pyrimidin-5-yl)-8-azabicyclo[3.2.1]octan-8-yl)(2H-1,2,3-triazol-4-yl)methanone]	0.1 to 1	0.1 to 1		
CS(=O)(=O)c1c([C@H]2CC3CC[C@H](C2)N3C(=O)c2cn[nH]n2)nc2c(-c3cnn(-c4ccc(F)cc4)c3)cnn2c1N [Compound 3.178, ((1R,3s,5S)-3-(7-amino-3-(1-(4-fluorophenyl)-1H-pyrazol-4-yl)-6-(methylsulfonyl)pyrazolo[1,5-a]pyrimidin-5-yl)-8-azabicyclo[3.2.1]octan-8-yl)(2H-1,2,3-triazol-4-yl)methanone]	1 to 10	1 to 10		
Cc1cnc(-c2ccc(-c3cnn4c(N)c(S(C)(=O)=O)c([C@H]5CC6CC[C@H](C5)N6C(=O)c5nnc[nH]5)nc34)cn2)s1 [Compound 3.180, ((1R,3s,5S)-3-(7-amino-6-(methylsulfonyl)-3-(6-(5-methylthiazol-2-yl)pyridin-3-yl)pyrazolo[1,5-a]pyrimidin-5-yl)-8-azabicyclo[3.2.1]octan-8-yl)(4H-1,2,4-triazol-3-yl)methanone]	0.001 to 0.1	0.001 to 0.1		
Cc1cnc(-c2ccc(-c3cnn4c(N)c(S(C)(=O)=O)c([C@H]5CC6CC[C@H](C5)N6C(=O)c5cn[nH]n5)nc34)cn2)s1 [Compound 3.181, ((1R,3s,5S)-3-(7-amino-6-(methylsulfonyl)-3-(6-(5-methylthiazol-2-yl)pyridin-3-yl)pyrazolo[1,5-a]pyrimidin-5-yl)-8-azabicyclo[3.2.1]octan-8-yl)(2H-1,2,3-triazol-4-yl)methanone]	0.1 to 1	0.001 to 0.1		
CC(=O)N1[C@@H]2CC[C@H]1C[C@H](c1nc3c(-c4ccc(-c5ncc(C)s5)nc4)cnn3c(N)c1S(C)(=O)=O)C2 [Compound 3.182, 1-((1R,3s,5S)-3-(7-amino-6-(methylsulfonyl)-3-(6-(5-methylthiazol-2-yl)pyridin-3-yl)pyrazolo[1,5-a]pyrimidin-5-yl)-8-azabicyclo[3.2.1]octan-8-yl)ethanone]			0.1 to 1	0.1 to 1
Cc1nnc(C(=O)N2[C@@H]3CC[C@H]2C[C@H](c2nc4c(-c5ccc(-c6ncc(C)s6)nc5)cnn4c(N)c2S(C)(=O)=O)C3)[nH]1 [Compound 3.184, ((1R,3s,5S)-3-(7-amino-6-(methylsulfonyl)-3-(6-(5-methylthiazol-2-yl)pyridin-3-yl)pyrazolo[1,5-a]pyrimidin-5-yl)-8-azabicyclo[3.2.1]octan-8-yl)(5-methyl-4H-1,2,4-triazol-3-yl)methanone]	0.001 to 0.1	0.001 to 0.1		
